The values below come from ChEMBL document CHEMBL4418308, “cGAS ANTAGONIST COMPOUNDS” (2017).

By IC50 is commonly meant the midpoint of a concentration-inhibition curve.

This test deals with Cyclic GMP-AMP synthase (Homo sapiens, UniProt Q8N884). The test can be described thus: Inhibition of recombinant His6-SUMO tagged human CGAS expressed in Escherichia coli BL21/pLys cells incubated for 20 mins by Kinase Glo chemiluminescence assay. In general terms: In Kinase-Glo more light means more ATP remaining.
Cyclic GMP-AMP synthase, sequence (Q8N884 whole entry): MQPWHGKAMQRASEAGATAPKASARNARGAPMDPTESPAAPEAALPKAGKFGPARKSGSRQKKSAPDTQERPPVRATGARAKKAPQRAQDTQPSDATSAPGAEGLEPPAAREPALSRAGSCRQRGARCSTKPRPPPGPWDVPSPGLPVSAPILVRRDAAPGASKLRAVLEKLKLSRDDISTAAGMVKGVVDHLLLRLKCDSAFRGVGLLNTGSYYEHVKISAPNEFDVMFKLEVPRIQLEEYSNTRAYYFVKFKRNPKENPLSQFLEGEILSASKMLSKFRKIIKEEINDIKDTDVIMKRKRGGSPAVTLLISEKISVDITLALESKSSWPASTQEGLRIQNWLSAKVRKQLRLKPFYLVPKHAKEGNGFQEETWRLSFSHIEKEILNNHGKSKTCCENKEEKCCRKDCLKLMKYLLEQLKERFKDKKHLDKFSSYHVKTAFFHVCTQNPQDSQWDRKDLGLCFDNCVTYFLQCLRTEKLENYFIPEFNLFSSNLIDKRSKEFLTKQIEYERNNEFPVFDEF

Consider `CN1C(=O)S/C(=C\c2cc(OCc3cnc(NCc4ccccc4)nc3)c(O)cc2Br)C1=O`, for which the IC50 is ≥ 10 µM.

Regarding `CC(Oc1cc(/C=C2\SC(=O)N(C)C2=O)c(Br)cc1O)c1cnc(N)nc1` (stereo unspecified), the IC50 is ≤ 0.5 µM.

As for `COc1cc(/C=C2\Sc3ncccc3C2=O)c(Br)c(Br)c1O`, the IC50 is ≥ 10 µM.

Take `CC(Oc1cc(/C=C2\SC(=O)N(C)C2=O)c(Br)c(F)c1O)c1cncnc1` (stereo unspecified): the IC50 was ≥ 10 µM.

As to `CN1C(=O)S/C(=C\c2cc(OCc3ccc(=O)[nH]c3)c(O)cc2Br)C1=O`, the IC50 lay in the range of 0.5 to 10 µM.

Regarding `COc1nc(S(C)(=O)=O)ncc1COc1cc(/C=C2\SC(=O)N(C)C2=O)c(Br)cc1O`, the IC50 is ≥ 10 µM.

As for `CC(Oc1cc(/C=C2\SC(=O)N(C)C2=O)c(Br)c(F)c1Oc1cnc(N)s1)c1cnc(N)nc1` (stereo unspecified), the IC50 lay within 0.5 to 10 µM.

`CC(C)CNc1ncc(COc2cc(/C=C3\SC(=O)N(C)C3=O)c(Br)cc2O)cn1`: the IC50 was ≥ 10 µM.

Take `COc1cc(/C=C2\SC(=O)N(C)C2=O)c(C#N)cc1O`: the IC50 is ≥ 10 µM.

For `CN1C(=O)S/C(=C\c2cc(OCC(=O)Nc3nncs3)c(O)c(F)c2Br)C1=O`, the IC50 was in the range of 0.5 to 10 µM.

In the case of `COc1cc(/C=C2\Sc3nccnc3C2=O)c(Br)cc1O`, the IC50 is ≥ 10 µM.

Turning to `CC(Oc1cc(/C=C2\SC(=O)N(C)C2=O)c(Br)cc1O)c1cnc(NCCO)nc1` (stereo unspecified), the IC50 fell in the range of 0.5 to 10 µM.

For `COc1cc(/C=C2\Sc3ncccc3C2=O)c(Br)cc1Oc1cnc(N)s1`, the IC50 is ≥ 10 µM.

Turning to `C/N=C1/S/C(=C\c2cc(OC)c(O)cc2Br)C(=O)N1C`, the IC50 is ≥ 10 µM.

Turning to `COc1cc(/C=C2\SC(=O)N(C)C2=O)c(Br)cc1Oc1ccncc1`, the IC50 was ≥ 10 µM.

Turning to `CN1C(=O)S/C(=C\c2cc(CCc3ccc([S+](C)[O-])cc3)c(O)cc2Br)C1=O` (stereo unspecified), the IC50 was ≥ 10 µM.

For the compound `COc1cc(/C=C2\SC(=O)N(C)C2=O)c(C)cc1O`, the IC50 was 0.5 to 10 µM.

For the compound `COc1cc(/C=C2\SC(=O)N(C)C2=O)c(C(F)(F)F)cc1O`, the IC50 was ≥ 10 µM.

With `CNc1ncc(C(C)Oc2cc(/C=C3\SC(=O)N(C)C3=O)c(Br)c(F)c2O)cn1` (stereo unspecified), the IC50 was ≥ 10 µM.

For `CN1C(=O)S/C(=C\c2cc(OCc3cc[nH]c(=O)c3)c(O)cc2Br)C1=O`, the IC50 lay within 0.5 to 10 µM.

As for `CN1C(=O)S/C(=C\c2cc(OCCc3cnc(N)nc3N)c(O)c(F)c2Br)C1=O`, the IC50 is ≤ 0.5 µM.

Regarding `COc1cc(/C=C2\SC(=O)N(C)C2=O)c(F)cc1O`, the IC50 is ≥ 10 µM.

Regarding `CN1CCN(c2ncc(COc3cc(/C=C4\SC(=O)N(C)C4=O)c(Br)cc3O)cn2)CC1`, the IC50 was ≥ 10 µM.

Consider `CSc1cc(/C=C2\SC(=O)N(C)C2=O)c(Br)cc1O`, for which the IC50 lay within 0.5 to 10 µM.

Regarding `CN1C(=O)S/C(=C\c2cc(OCC(F)(F)c3cnc(N)nc3)c(O)c(F)c2Br)C1=O`, the IC50 lay in the range of 0.5 to 10 µM.

As for `COc1nc([S+](C)[O-])ncc1COc1cc(/C=C2\SC(=O)N(C)C2=O)c(Br)cc1O` (stereo unspecified), the IC50 is ≥ 10 µM.

Take `O=C1NC(=O)/C(=C/c2cccnc2)S1`: the IC50 was ≥ 10 µM.

Take `CN1C(=O)S/C(=C\c2cc(OCc3ccccn3)c(O)cc2Br)C1=O`: the IC50 was ≥ 10 µM.

In the case of `Cc1ncc(COc2cc(/C=C3\SC(=O)N(C)C3=O)c(Br)c(F)c2O)cn1`, the IC50 is 0.5 to 10 µM.

Turning to `COc1cccc(Oc2cc(/C=C3\SC(=O)N(C)C3=O)c(Br)cc2O)c1N`, the IC50 is ≥ 10 µM.

With `O=C1NC(=O)/C(=C/c2ccncc2)N1`, the IC50 was in the range of 0.5 to 10 µM.

As for `O=C1NC(=O)/C(=C/c2cnccn2)S1`, the IC50 was ≥ 10 µM.

As for `CN1C(=O)S/C(=C\c2cc(OCc3cnc(S)nc3)c(O)cc2Br)C1=O`, the IC50 is ≥ 10 µM.

On to `CN1C(=O)S/C(=C\c2cc(OCc3cnc(C4CC4)nc3)c(O)cc2Br)C1=O`, for which the IC50 was ≥ 10 µM.

On to `CC(C)C(=O)Nc1cncc(COc2cc(/C=C3\SC(=O)N(C)C3=O)c(Br)cc2O)c1`, for which the IC50 was ≥ 10 µM.

On to `CN1C(=O)S/C(=C\c2cc(OCc3cncc4ccccc34)c(O)cc2Br)C1=O`, for which the half-inhibitory concentration (IC50) was ≥ 10 µM.

Regarding `COc1cc(/C=C2\SC(=O)N(C)C2=O)c(Br)cc1Oc1nncs1`, the IC50 is ≥ 10 µM.

As for `Cc1ncc(C(C)Oc2cc(/C=C3\SC(=O)N(C)C3=O)c(Br)cc2O)cn1` (stereo unspecified), the IC50 was ≥ 10 µM.

Turning to `CN1C(=O)S/C(=C\c2cc(OCc3cnc(S(C)(=O)=O)nc3Cl)c(O)cc2Br)C1=O`, the IC50 is ≥ 10 µM.

Consider `CN1C(=O)S/C(=C\c2cc(OCc3cnc(N4CCOCC4)nc3)c(O)cc2Br)C1=O`, for which the IC50 was ≥ 10 µM.

On to `CN1C(=O)S/C(=C\c2cc(OCC3CCN(C(=O)c4ccncc4)CC3)c(O)cc2Br)C1=O`, for which the IC50 was ≥ 10 µM.

Take `C#Cc1cc(O)c(OC)cc1/C=C1\SC(=O)N(C)C1=O`: the IC50 is ≥ 10 µM.

For `COc1cc(/C=c2\sc3n(c2=O)CCCN=3)c(Cl)cc1O`, the IC50 was ≥ 10 µM.

`COc1cc(/C=C2\Sc3cnccc3C2=O)c(Br)cc1O`: the IC50 is ≤ 0.5 µM.

Regarding `CN1C(=O)S/C(=C\c2cc(OCc3ccc4ncccc4c3)c(O)cc2Br)C1=O`, the IC50 was ≥ 10 µM.

Consider `CN1C(=O)S/C(=C\c2cc(OCC3(c4cnc(N)nc4)CC3)c(O)c(F)c2Br)C1=O`, for which the concentration for half-maximal inhibition (IC50) is 0.5 to 10 µM.

For `CC(=O)c1cc(/C=C2\SC(=O)N(C)C2=O)c(Br)cc1O`, the IC50 was ≥ 10 µM.

Turning to `O=C1/C(=C/c2cc(OCc3cnc(NCc4cccnc4)nc3)c(O)cc2Br)Sc2ncccc21`, the IC50 is ≤ 0.5 µM.

As for `Cc1nc([S+](C)[O-])nc(C)c1COc1cc(/C=C2\SC(=O)N(C)C2=O)c(Br)cc1O` (stereo unspecified), the IC50 is ≥ 10 µM.

With `CN1C(=O)S/C(=C\c2cc(OCc3cnc(NC(=O)c4ccncc4)nc3)c(O)cc2Br)C1=O`, the IC50 is ≤ 0.5 µM.

In the case of `CC(Oc1cc(/C=C2\Sc3ncccc3C2=O)c(Br)cc1O)c1cnc(Cl)nc1` (stereo unspecified), the 50% inhibitory concentration (IC50) is ≤ 0.5 µM.

On to `CSc1nc([S+](C)[O-])ncc1COc1cc(/C=C2\Sc3ncccc3C2=O)c(Br)c(F)c1O` (stereo unspecified), for which the IC50 was ≤ 0.5 µM.

Take `CN1C(=O)S/C(=C\c2cc(OCc3ccnc4ccccc34)c(O)cc2Br)C1=O`: the concentration for half-maximal inhibition (IC50) was ≥ 10 µM.

In the case of `CC(=O)Nc1nc(S(=O)(=O)Nc2cc(Br)c(/C=C3\SC(=O)N(C)C3=O)cc2OCc2ccccc2)cs1`, the IC50 was 0.5 to 10 µM.

Take `O=C1NC(=O)/C(=C/c2ccnnc2)N1`: the IC50 was ≥ 10 µM.

Consider `CSc1ncncc1C(=O)C(C)Oc1cc(/C=C2\SC(=O)N(C)C2=O)c(Br)c(F)c1O` (stereo unspecified), for which the IC50 was ≥ 10 µM.

Consider `COc1cc(/C=c2\sc3n(c2=O)CCN=3)c(Cl)cc1O`, for which the IC50 was ≥ 10 µM.

Take `CN1C(=O)S/C(=C\c2cc(OCC3CCN(C(=O)c4ccccc4)CC3)c(O)cc2Br)C1=O`: the IC50 is ≥ 10 µM.

`CN1C(=O)S/C(=C\c2cc(CCc3cnc(N)nc3)c(O)cc2Br)C1=O`: the IC50 fell in the range of 0.5 to 10 µM.

As for `Cc1cnccc1/C=C1\SC(=O)NC1=O`, the IC50 was ≤ 0.5 µM.

On to `CNc1ncc(COc2cc(/C=C3\SC(=O)N(C)C3=O)c(Br)c(F)c2O)cn1`, for which the IC50 is ≤ 0.5 µM.

Turning to `C/C(=C1/SC(=O)NC1=O)c1ccncc1`, the IC50 was ≤ 0.5 µM.

As for `COc1cc(/C=C2\SC(=O)N(C)C2=O)c(Br)cc1Oc1cnc(NCc2cccnc2)s1`, the IC50 was ≥ 10 µM.

As for `CN1C(=O)S/C(=C\c2cc(OCc3cn(-c4ccccc4)nn3)c(O)cc2Br)C1=O`, the IC50 is ≥ 10 µM.

Turning to `COc1cc(/C=C2\Sc3ncncc3C2=O)c(Br)cc1O`, the IC50 lay within 0.5 to 10 µM.

Regarding `CSc1ccc(CCc2cc(/C=C3\SC(=O)N(C)C3=O)c(Br)cc2O)cc1`, the IC50 was in the range of 0.5 to 10 µM.

As to `CN1C(=O)S/C(=C\c2cc(OCc3cnc(-c4ccncc4)nc3)c(O)cc2Br)C1=O`, the IC50 was ≤ 0.5 µM.

Regarding `Cc1ncc(COc2cc(/C=C3\Sc4ncccc4C3=O)c(Br)cc2O)c(C)n1`, the IC50 was ≤ 0.5 µM.

With `CN1C(=O)S/C(=C\c2cc(Oc3cccc4cnccc34)c(O)cc2Br)C1=O`, the IC50 was ≥ 10 µM.

Take `CN1C(=O)S/C(=C\c2cc(OCC3CCN(C(=O)c4ccccn4)CC3)c(O)cc2Br)C1=O`: the IC50 was ≥ 10 µM.

Turning to `CN1C(=O)S/C(=C\c2cc(C(C)(F)F)c(O)cc2Br)C1=O`, the IC50 was ≥ 10 µM.

Turning to `CC(Oc1cc(/C=C2\Sc3ncccc3C2=O)c(Br)cc1O)c1cccnc1` (stereo unspecified), the IC50 fell in the range of 0.5 to 10 µM.

Take `CN1C(=O)S/C(=C\c2cc(OCc3cnc(NCc4ccncc4)nc3)c(O)c(F)c2Br)C1=O`: the concentration for half-maximal inhibition (IC50) is ≤ 0.5 µM.

As to `Nc1ncc(COc2cc(/C=C3\Sc4ncccc4C3=O)c(Br)cc2O)c(C(F)(F)F)n1`, the IC50 was ≤ 0.5 µM.

Regarding `COc1cc(/C(Br)=C2\SC(=O)N(C)C2=O)c(Br)cc1O`, the IC50 is ≥ 10 µM.

Take `CN1C(=O)S/C(=C\c2cc(OCc3cnc(N)nc3C3CC3)c(O)c(F)c2Br)C1=O`: the IC50 is 0.5 to 10 µM.

As to `CN1C(=O)S/C(=C\c2cc(OCc3cnc(N4CCCCC4)nc3)c(O)cc2Br)C1=O`, the IC50 is ≥ 10 µM.

Consider `CC(C)Nc1ncc(COc2cc(/C=C3\SC(=O)N(C)C3=O)c(Br)cc2O)cn1`, for which the IC50 was ≥ 10 µM.

In the case of `COCCNc1ncc(C(C)Oc2cc(/C=C3\SC(=O)N(C)C3=O)c(Br)cc2O)cn1` (stereo unspecified), the IC50 lay in the range of 0.5 to 10 µM.

Regarding `CN1C(=O)S/C(=C\c2cc(OCc3cnc([S+](C)[O-])nc3Cl)c(O)cc2Br)C1=O` (stereo unspecified), the IC50 was ≥ 10 µM.

Regarding `O=C1/C(=C/c2cc(OCc3cnc(NCc4ccccn4)nc3)c(O)cc2Br)Sc2ncccc21`, the IC50 is ≤ 0.5 µM.

For `CN1C(=O)S/C(=C\c2cc(OCCc3ccncc3)c(O)cc2Br)C1=O`, the IC50 lay within 0.5 to 10 µM.

As to `COc1cc(/C=c2\sc3n(c2=O)CCCN=3)c(Br)cc1O`, the IC50 is ≥ 10 µM.

In the case of `COc1cc(/C=C2\SC(=O)N(C)C2=O)c(Br)c(Cl)c1O`, the IC50 was ≥ 10 µM.

`CN1C(=O)S/C(=C\c2cc(OCc3cnc(Nc4cccnc4)nc3)c(O)cc2Br)C1=O`: the IC50 was in the range of 0.5 to 10 µM.

For the compound `CN1C(=O)S/C(=C\c2cc(OCc3ccccc3)c(O)cc2Br)C1=O`, the IC50 was ≥ 10 µM.

With `CN1C(=O)S/C(=C\c2cc(Oc3ccc(=O)[nH]c3)c(O)cc2Br)C1=O`, the IC50 lay in the range of 0.5 to 10 µM.

Consider `CC(Oc1cc(/C=C2\SC(=O)N(C)C2=O)c(Br)c(F)c1O)C(O)c1cncnc1N` (stereo unspecified), for which the IC50 is ≤ 0.5 µM.

Take `CN1C(=O)S/C(=C\c2cc(OCc3cnc(N4CCCC4)nc3)c(O)cc2Br)C1=O`: the IC50 was ≥ 10 µM.

Turning to `COc1cc(/C=C2\SC(=O)N(C)C2=O)c(Br)cc1NS(C)(=O)=O`, the IC50 was ≥ 10 µM.

`CN1C(=O)S/C(=C\c2cc(OCc3cnc(N)nc3C(F)(F)F)c(O)cc2Br)C1=O`: the IC50 was ≤ 0.5 µM.
